Key:
[1] = system: prostate carcinoma (PC-3) cells; assay: SRB cytotoxicity assay, PC-3; format: cell-based, human; conditions: for IC50: Homo sapiens, PC-3, SRB assay, 72 h, mean ± SD of three experiments; for Selectivity Index PC-3: SI = IC50 on WI-38/IC50 on PC-3
Experimental: (§1) In the present work, sulforhodamine B (SRB) colorimetric assay was done to evaluate the cytotoxic activity of the synthesized 3-cyano pyridines 4a–4e, 5a–5e, and 6a–6e on three human cancer cell lines: prostate carcinoma (PC-3), breast cancer (MDA-MB-231) and hepatocellular carcinoma (HepG2) cell lines. 5-FU was used as a standard drug for comparison.
(§2) Human cancer cells were obtained from Nawah Scientific Inc. (Mokatam, Cairo, Egypt). Cells were maintained in DMEM media containing […] streptomycin, 100 units/mL penicillin, and 10% heat-inactivated fetal bovine serum in humified, 5% (v/v) CO2 atmosphere at 37 °C.
(§3) Cell viability was estimated using the SRB assay. Aliquots of 100 µL cell suspension (5 × 10^3 cells) in 96-well plates were incubated in complete media for 24 h. Cells were treated with a second aliquot of 100 µL media containing various concentrations of the tested compounds (0.01, 0.1, 1, 10, and 100 μM). After 72 h, cells were fixed by replacing media with 15 µL of 10% TCA and then incubated at 4 °C for 1 h. After that, TCA solution was removed, and the cells were washed 5 times with distilled water. Aliquots of 70 µL SRB solution (0.4% w/v) were added and incubated in a dark place at room temperature for 10 min. Plates were washed 3 times with 1% acetic acid and allowed to air dry overnight. Then, 150 µL of TRIS (10 mM) was added to dissolve protein-bound SRB stain. The absorbance was measured at 540 nm using BMG LABTECH®-FLUO star Omega microplate reader (Ortenberg, Germany).

[2] = system: breast cancer (MDA-MB-231) cells; assay: SRB cytotoxicity assay, MDA-MB-231; format: cell-based, human; conditions: for IC50: Homo sapiens, MDA-MB-231, 72 h, SRB assay, 72 h, mean ± SD of three experiments; for Selectivity Index MDA-MB-231: SI = IC50 on WI-38/IC50 on MDA-MB-231
Experimental: as §1, §2, §3

[3] = system: hepatocellular carcinoma (HepG2) cells; assay: SRB cytotoxicity assay, HepG2; format: cell-based, human; conditions: for IC50: Homo sapiens, HepG2, 72 h, SRB assay, 72 h, mean ± SD of three experiments; for Selectivity Index HepG2: SI = IC50 on WI-38/IC50 on HepG2
Experimental: as §1, §2, §3

[4] = target: T1, survivin (Homo sapiens, UniProt O15392); assay: Western blotting of survivin in MDA-MB-231 cells; format: cell-based; conditions: for survivin expression (Western blot, in words): MDA-MB-231, 1, 5 and 10 µM
T1 construct: Western blotting analysis in MDA-MB-231cells treated with different concentrations of both compounds; endogenous in cells; host or cells: MDA-MB-231
Experimental: (§4) The ability of the 2-oxo-3-cyano pyridines 5c and 5e to cause an inhibition of survivin was evaluated by the use of Western blotting analysis in MDA-MB-231cells treated with different concentrations of both compounds (1, 5, and 10 µM). […] Furthermore, to test the effect of these compounds on some other IAP family proteins, the Western plot of Livin, XIAP, and C-IAP1 proteins was performed (Figure 6). […] The Supplementary Material Figures S40 and S41 contain western blotting analysis for 5c and 5e.
(§5) MDA-MB-231 cancer cells were incubated with 5c and 5e at different concentrations (1, 5, and 10 µM) for 48 h. Afterwards, the medium was detached, and the cells were washed using PBS (10 mmol/L, pH 7.4). Then, the cells were incubated on cold lysis buffer (50 mmol/L Tris–HCl, 150 mmol/L NaCl, 1 mmol/L EGTA, 1 mmol/L EDTA, 20 mmol/L NaF, […], 0.5% NP40, 1% Triton X-100, 1 mmol/L PMSF (pH 7.4)) and a freshly added cocktail inhibitor (Inhibitor Cocktail Set III, Calbiochem, La Jolla, CA) above ice for 30 min. Then, MDA-MB-231 cells were collected and centrifuged at 12,000× g for 15 min.
(§6) XIAp, Survivin, Livin, and cIAP1anti-mouse, anti-rabbit secondary antibodies, and GAPDH were purchased from Sigma-Aldrich, whereas the gel was obtained from BioRad. Polyacrylamide gels were moved to a nitrocellulose membrane in order to block in buffer (7% nonfat dry milk/1% Tween 20; in 20 mmol/L TBS (pH 7.6)) for 1 h and incubated for 2 h at room temperature with the suitable primary antibody in blocking buffer or overnight at 4 °C; then, they were incubated with secondary antibody HRP conjugate. Finally, the blots analysis was done using the imaging system.

[5] = system: Livin; assay: Western blotting of Livin in MDA-MB-231 cells; format: cell-based, human; conditions: for Livin protein level (Western blot, in words): MDA-MB-231, 1, 5 and 10 µM
Experimental: as §4, §5, §6

[6] = system: C-IAP1; assay: Western blotting of C-IAP1 in MDA-MB-231 cells; format: cell-based, human; conditions: for C-IAP1 protein level (Western blot, in words): MDA-MB-231, 1, 5 and 10 µM
Experimental: as §4, §5, §6

[7] = cytotoxicity compared with 5-FU

T1 sequence (O15392 whole entry): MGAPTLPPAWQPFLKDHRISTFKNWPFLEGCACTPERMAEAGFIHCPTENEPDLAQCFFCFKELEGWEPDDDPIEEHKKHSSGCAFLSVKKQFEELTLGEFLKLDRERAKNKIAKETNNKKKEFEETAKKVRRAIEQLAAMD

## COc1ccc(-c2cc(-c3ccc(OCc4ccc(F)cc4)cc3)[nH]c(=O)c2C#N)cc1 [Compound 5e, 6-(4-((4-Fluorobenzyl)oxy)phenyl)-4-(4-methoxyphenyl)-2-oxo-1,2-dihydropyridine-3-carbonitrile]
[1]
  IC50: 4.46 ± 0.51 µM
  Selectivity Index PC-3: 22.99
[1]; [7]
  activity relative to 5-FU, PC-3: twice the activity of 5-FU
[2]
  IC50: 3.59 ± 0.42 µM
  Selectivity Index MDA-MB-231: 28.57
[2]; [7]
  activity relative to 5-FU, MDA-MB-231: 2.6 fold
[3]
  IC50: 6.01 ± 0.53 µM
  Selectivity Index HepG2: 17.06
[3]; [7]
  activity relative to 5-FU, HepG2: comparable to 5-FU
[4]; MDA-MB-231, 1µM
  Survivin band %: 31.4%
  Survivin band Area: 1368
  Survivin band Height: 120
  Survivin band Width: 22
[4]; MDA-MB-231, 5µM
  Survivin band %: 25%
  Survivin band Area: 1079
  Survivin band Height: 108
  Survivin band Width: 19
[4]; MDA-MB-231, 10µM
  Survivin band %: 19.1%
  Survivin band Area: 1062
  Survivin band Height: 105
  Survivin band Width: 18
[4]
  survivin expression (Western blot, in words): remarkable inhibition of survivin expression
[5]; MDA-MB-231, 1µM
  LIVIN band %: 25.7%
  LIVIN band Area: 2085
  LIVIN band Height: 136
  LIVIN band Width: 33
[5]; MDA-MB-231, 5µM
  LIVIN band %: 16.6%
  LIVIN band Area: 907
  LIVIN band Height: 68
  LIVIN band Width: 27
[5]; MDA-MB-231, 10µM
  LIVIN band %: 9.8%
  LIVIN band Area: 330
  LIVIN band Height: 44
  LIVIN band Width: 14
[5]
  Livin protein level (Western blot, in words): decreased the levels of these proteins
[6]; MDA-MB-231, 1µM
  CIAP1 band %: 18.2%
  CIAP1 band Area: 987
  CIAP1 band Height: 98
  CIAP1 band Width: 24
[6]; MDA-MB-231, 5µM
  CIAP1 band %: 12.6%
  CIAP1 band Area: 766
  CIAP1 band Height: 86
  CIAP1 band Width: 23
[6]; MDA-MB-231, 10µM
  CIAP1 band %: 10.2%
  CIAP1 band Area: 570
  CIAP1 band Height: 79
  CIAP1 band Width: 22
[6]
  C-IAP1 protein level (Western blot, in words): decreased the levels of these proteins

## N#Cc1c(-c2ccc(Cl)cc2)cc(-c2ccc(OCc3ccc(F)cc3)cc2)[nH]c1=O [Compound 5c, 4-(4-Chlorophenyl)-6-(4-((4-fluorobenzyl)oxy)phenyl)-2-oxo-1,2-dihydropyridine-3-carbonitrile]
[1]
  IC50: 14.4 ± 0.38 µM
  Selectivity Index PC-3: 6.33
[1]; cell line not specified (PC-3, MDA-MB-231, HepG2 tested)
  cytotoxicity relative to 5-FU: nearly half that of 5-FU
[2]
  IC50: 20 ± 0.17 µM
  Selectivity Index MDA-MB-231: 4.56
[3]
  IC50: 15 ± 0.64 µM
  Selectivity Index HepG2: 6.08
[4]; MDA-MB-231, 1µM
  Survivin band %: 38.3%
  Survivin band Area: 2261
  Survivin band Height: 156
  Survivin band Width: 26
[4]; MDA-MB-231, 5µM
  Survivin band %: 25.9%
  Survivin band Area: 1674
  Survivin band Height: 137
  Survivin band Width: 16
[4]; MDA-MB-231, 10µM
  Survivin band %: 15.6%
  Survivin band Area: 1028
  Survivin band Height: 121
  Survivin band Width: 13
[4]
  survivin expression (Western blot, in words): remarkable inhibition of survivin expression
[5]; MDA-MB-231, 1µM
  LIVIN band %: 20.2%
  LIVIN band Area: 1305
  LIVIN band Height: 134
  LIVIN band Width: 22
[5]; MDA-MB-231, 5µM
  LIVIN band %: 13.4%
  LIVIN band Area: 793
  LIVIN band Height: 84
  LIVIN band Width: 17
[5]; MDA-MB-231, 10µM
  LIVIN band %: 9.1%
  LIVIN band Area: 514
  LIVIN band Height: 66
  LIVIN band Width: 17
[5]
  Livin protein level (Western blot, in words): decreased the levels of these proteins
[6]; MDA-MB-231, 1µM
  CIAP1 band %: 39.7%
  CIAP1 band Area: 2565
  CIAP1 band Height: 192
  CIAP1 band Width: 24
[6]; MDA-MB-231, 5µM
  CIAP1 band %: 34.1%
  CIAP1 band Area: 1941
  CIAP1 band Height: 187
  CIAP1 band Width: 22
[6]; MDA-MB-231, 10µM
  CIAP1 band %: 31.9%
  CIAP1 band Area: 1884
  CIAP1 band Height: 186
  CIAP1 band Width: 18
[6]
  C-IAP1 protein level (Western blot, in words): decreased the levels of these proteins
